Reference: patent US20020137929A1, “1 - (3-heterocyclylphenyl) isothiourea, -isourea, -guanidine and -amidine herbicidal agents” (Intellectual Property Department, BASF Aktiengesellschaft, priority 1998, published 2002)

How the values were obtained:
[1] = tested on: GLXMAW (Soybean, Williams); assay: Postemergence herbicidal evaluation; format: in vivo, Glycine max, (L.) Merr. cv Williams; conditions: postemergence
In short: (§1)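 Scores (0–9) reflect plant stand, vigor, malformation, size, chlorosis and general appearance relative to control, read 4 to 5 weeks after treatment and averaged where tests were repeated. Application: about 0.0156–0.500 kg/ha sprayed at 40 psi onto two-week seedlings.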

[2] = tested on: SAGPY (Arrowhead (Pygmaea)); assay: Preemergence weed control under flooded paddy conditions; format: in vivo, Sagittaria pygmaea; conditions: rated 3-4 weeks after treatment
In short: (§2)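 Visual injury scored 0-9 against control three to four weeks post-treatment, greenhouse-grown. Application: acetone/water (50/50) solutions dosed directly into flood water (1.5-3 cm over silt loam, planted top 0.5 cm), roughly 0.0313 to 0.500 kg/ha active ingredient.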

ZEAMX (Corn, Field) = assay: Postemergence herbicidal evaluation; format: in vivo, Zea mays; conditions: postemergence
In short: as §1

[3] = tested on: ECHORC (Watergrass (Calif.)); assay: Postemergence weed control under flooded paddy conditions; format: in vivo, Echinochloa oryzoides; conditions: postemergence weeds, rated 3 to 4 weeks after treatment
In short: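 Herbicidal effect is judged by eye on a 0–9 scale versus control, 3–4 weeks after dosing. Dosing is into flood water kept 1.5–3 cm over the soil, at about 0.0313–0.500 kg/ha in aqueous/acetone 50/50 v/v, on 3–5 cm weeds and 1.5–2.5-leaf rice seedlings.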

ABUTH (Velvetleaf) = assay: Preemergence herbicidal evaluation; format: in vivo, Abutilon theophrasti; conditions: preemergence, rated 4-5 weeks after treatment, 0-9 scale
In short: (§3)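 Herbicidal effect scored visually, 0-9, at 4 to 5 weeks against a control; compound applied preemergence by aqueous acetone spray to seeded soil at about 0.0156 to 0.500 kg/ha.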

ECHCG (Barnyardgrass) = assay: Preemergence herbicidal evaluation; format: in vivo, Echinochloa crus-galli; conditions: preemergence, rated 4-5 weeks after treatment, 0-9 scale
In short: as §3

CYPSE (Flatsedge) = assay: Preemergence weed control under flooded paddy conditions; format: in vivo, Cyperus serotinus; conditions: rated 3-4 weeks after treatment
In short: as §2

AMBEL (Ragweed, Common) [4] = assay: Postemergence herbicidal evaluation; format: in vivo, Ambrosia artemisifolia; conditions: postemergence
In short: as §1

[5] = tested on: IPOHE (Morningglory, Ivyleaf); assay: Postemergence herbicidal evaluation; format: in vivo, Ipomoea hederacea; conditions: postemergence
In short: as §1

[6] = tested on: GLXMAW (Soybean, Williams); assay: Preemergence herbicidal evaluation; format: in vivo, Glycine max, (L.) Merr. cv Williams; conditions: preemergence, rated 4-5 weeks after treatment, 0-9 scale
In short: as §3

AMBEL (Ragweed, Common) [7] = assay: Preemergence herbicidal evaluation; format: in vivo, Ambrosia artemisifolia; conditions: preemergence, rated 4-5 weeks after treatment, 0-9 scale
In short: as §3

CASOB (Sicklepod) = assay: Preemergence herbicidal evaluation; format: in vivo, Cassia obtusifolia; conditions: preemergence, rated 4-5 weeks after treatment, 0-9 scale
In short: as §3

GALAP (Galium) = assay: Preemergence herbicidal evaluation; format: in vivo, Galium aparine; conditions: preemergence, rated 4-5 weeks after treatment, 0-9 scale
In short: as §3

SETVI (Foxtail, Green) = assay: Preemergence herbicidal evaluation; format: in vivo, Setaria viridis; conditions: preemergence, rated 4-5 weeks after treatment, 0-9 scale
In short: as §3

CCOC(=O)CN1C(=O)C(CC(=O)NS(=O)(=O)c2ccccc2)SC1=Nc1cc(-n2c(=O)cc(C(F)(F)F)n(C)c2=O)c(F)cc1Cl (stereo not shown) [Compound 100, Ethyl 2-{{2-chloro-5-[3,6-dihydro-3-methyl-2,6-dioxo-4-(trifluoromethyl)-1(2H)-pyrimidinyl]-4-fluorophenyl}imino}-4-oxo-5-{[(phenylsulfonyl)-carbamoyl]methyl]-3-thiazolidineacetate]
2.0: ABUTH rating (ABUTH (Velvetleaf); 0.1250 kg/ha) | GLXMAW rating ([6]; 0.5000 kg/ha)
8.0: CASOB rating (CASOB (Sicklepod); 0.5000 kg/ha)
1.0: ECHCG rating (ECHCG (Barnyardgrass); 0.2500 kg/ha) | ECHCG rating (ECHCG (Barnyardgrass); 0.5000 kg/ha) | GLXMAW rating ([6]; 0.0625 kg/ha) | GLXMAW rating ([6]; 0.1250 kg/ha) | AMBEL rating (AMBEL (Ragweed, Common) [7]; 0.1250 kg/ha) | AMBEL rating (AMBEL (Ragweed, Common) [7]; 0.2500 kg/ha) | GALAP rating (GALAP (Galium); 0.0625 kg/ha) | SETVI rating (SETVI (Foxtail, Green); 0.0625 kg/ha) | SETVI rating (SETVI (Foxtail, Green); 0.2500 kg/ha) | SETVI rating (SETVI (Foxtail, Green); 0.5000 kg/ha)
3.0: Herbicidal rating ECHORC ([3]; Rate 0.2500 kg/ha)
7.0: herbicidal rating GLXMAW ([1]; rate 0.1250 kg/ha) | herbicidal rating AMBEL (AMBEL (Ragweed, Common) [4]; rate 0.1250 kg/ha) | AMBEL rating (AMBEL (Ragweed, Common) [7]; 0.5000 kg/ha)
6.0: herbicidal rating GLXMAW ([1]; rate 0.0313 kg/ha) | SAGPY herbicidal effect rating ([2]; 0.5000 kg/ha) | GALAP rating (GALAP (Galium); 0.2500 kg/ha) | GALAP rating (GALAP (Galium); 0.5000 kg/ha)
0.0: SAGPY herbicidal effect rating ([2]; 0.0313 kg/ha) | SAGPY herbicidal effect rating ([2]; 0.0625 kg/ha) | SAGPY herbicidal effect rating ([2]; 0.1250 kg/ha) | Herbicidal rating ECHORC ([3]; Rate 0.0313 kg/ha) | Herbicidal rating ECHORC ([3]; Rate 0.0625 kg/ha) | Herbicidal rating ECHORC ([3]; Rate 0.1250 kg/ha) | ABUTH rating (ABUTH (Velvetleaf); 0.0313 kg/ha) | ABUTH rating (ABUTH (Velvetleaf); 0.0625 kg/ha) | ECHCG rating (ECHCG (Barnyardgrass); 0.0313 kg/ha) | ECHCG rating (ECHCG (Barnyardgrass); 0.0625 kg/ha) | ECHCG rating (ECHCG (Barnyardgrass); 0.1250 kg/ha) | CYPSE herbicidal effect rating (CYPSE (Flatsedge); 0.0313 kg/ha) | CYPSE herbicidal effect rating (CYPSE (Flatsedge); 0.0625 kg/ha) | CYPSE herbicidal effect rating (CYPSE (Flatsedge); 0.1250 kg/ha) | CYPSE herbicidal effect rating (CYPSE (Flatsedge); 0.2500 kg/ha) | GLXMAW rating ([6]; 0.0313 kg/ha) | GLXMAW rating ([6]; 0.2500 kg/ha) | AMBEL rating (AMBEL (Ragweed, Common) [7]; 0.0313 kg/ha) | AMBEL rating (AMBEL (Ragweed, Common) [7]; 0.0625 kg/ha) | CASOB rating (CASOB (Sicklepod); 0.0313 kg/ha) | CASOB rating (CASOB (Sicklepod); 0.0625 kg/ha) | CASOB rating (CASOB (Sicklepod); 0.1250 kg/ha) | CASOB rating (CASOB (Sicklepod); 0.2500 kg/ha) | GALAP rating (GALAP (Galium); 0.0313 kg/ha) | SETVI rating (SETVI (Foxtail, Green); 0.0313 kg/ha) | SETVI rating (SETVI (Foxtail, Green); 0.1250 kg/ha)
4.5: herbicidal rating ZEAMX (ZEAMX (Corn, Field); rate 0.0156 kg/ha)
4.0: SAGPY herbicidal effect rating ([2]; 0.2500 kg/ha) | Herbicidal rating ECHORC ([3]; Rate 0.5000 kg/ha)
5.5: herbicidal rating GLXMAW ([1]; rate 0.0156 kg/ha)
5.0: herbicidal rating ZEAMX (ZEAMX (Corn, Field); rate 0.0313 kg/ha) | herbicidal rating ZEAMX (ZEAMX (Corn, Field); rate 0.0625 kg/ha) | herbicidal rating ZEAMX (ZEAMX (Corn, Field); rate 0.1250 kg/ha) | herbicidal rating IPOHE ([5]; rate 0.0156 kg/ha)
6.5: herbicidal rating GLXMAW ([1]; rate 0.0625 kg/ha)
9.0: ABUTH rating (ABUTH (Velvetleaf); 0.2500 kg/ha) | ABUTH rating (ABUTH (Velvetleaf); 0.5000 kg/ha) | herbicidal rating AMBEL (AMBEL (Ragweed, Common) [4]; rate 0.0156 kg/ha) | herbicidal rating AMBEL (AMBEL (Ragweed, Common) [4]; rate 0.0313 kg/ha) | herbicidal rating AMBEL (AMBEL (Ragweed, Common) [4]; rate 0.0625 kg/ha) | herbicidal rating IPOHE ([5]; rate 0.0313 kg/ha) | herbicidal rating IPOHE ([5]; rate 0.0625 kg/ha) | herbicidal rating IPOHE ([5]; rate 0.1250 kg/ha)
